Experimental findings from US10077436B2, “Beta-glucosidase enzymes for increased biomass saccharification” (Edeniq, Inc., priority 2013, dated 2018) are described below.

The test concerns the target T1, Aspergillus niger beta-glucosidase, wild type, yEdQ745-BG (CAB75696.1, SEQ ID NO:2) (Aspergillus niger, UniProt Q9P8F4).
T1 construct: strain yEdQ745
T1 sequence (Q9P8F4 20-860): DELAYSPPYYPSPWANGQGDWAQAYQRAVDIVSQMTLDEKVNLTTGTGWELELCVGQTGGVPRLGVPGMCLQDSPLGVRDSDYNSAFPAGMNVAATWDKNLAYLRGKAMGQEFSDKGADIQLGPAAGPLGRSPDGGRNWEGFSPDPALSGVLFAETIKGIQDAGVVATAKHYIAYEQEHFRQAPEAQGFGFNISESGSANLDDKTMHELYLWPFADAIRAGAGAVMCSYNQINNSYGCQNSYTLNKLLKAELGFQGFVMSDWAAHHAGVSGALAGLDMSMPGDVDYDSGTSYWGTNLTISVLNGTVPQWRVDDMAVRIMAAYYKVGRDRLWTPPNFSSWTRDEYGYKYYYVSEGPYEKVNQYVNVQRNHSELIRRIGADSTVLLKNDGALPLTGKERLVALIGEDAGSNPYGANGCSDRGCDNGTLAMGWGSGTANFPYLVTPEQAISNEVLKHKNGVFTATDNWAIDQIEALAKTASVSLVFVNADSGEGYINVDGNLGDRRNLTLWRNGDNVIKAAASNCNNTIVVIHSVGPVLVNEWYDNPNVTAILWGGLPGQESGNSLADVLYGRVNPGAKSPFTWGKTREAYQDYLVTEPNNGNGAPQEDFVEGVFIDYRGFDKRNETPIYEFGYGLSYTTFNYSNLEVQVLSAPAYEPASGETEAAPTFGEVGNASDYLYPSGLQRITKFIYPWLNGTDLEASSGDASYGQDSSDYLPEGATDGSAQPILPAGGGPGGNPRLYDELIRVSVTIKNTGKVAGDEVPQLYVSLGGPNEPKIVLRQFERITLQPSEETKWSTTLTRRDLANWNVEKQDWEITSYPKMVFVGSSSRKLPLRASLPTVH
Description: BG kinetics, pNPG hydrolysis assay with glucose as competitive inhibitor, yEdQ745-BG. The class given is biochemical. From the text:
Accordingly, in some embodiments, the unmodified form of the beta-glucosidase is a wild-type or a naturally occurring beta-glucosidase, such as, for example, a fungal beta-glucosidase. The full nucleic acid and amino acid sequence for numerous fungal beta-glucosidases are available. The amino acid sequence of A. niger beta-glucosidase is provided as SEQ ID NO:2. Thus, in some embodiments, the unmodified beta-glucosidase is from an Aspergillus species. In some embodiments, the unmodified beta-glucosidase is from a Trichoderma species.
The beta-glucosidase (BG) gene from Aspergillus niger (Accession #CAB75696.1) was integrated into the TR3 yeast background at the T4U3 genomic site.
The BG-expressing strains were subsequently used in corn mash and corn stover simultaneous saccharification and fermentation (SSF) studies using flask scale and pilot plant fermentations. […]
BG activity assay using pNPG is one of the two commonly used standard assays to measure BG activity, which utilizes hydrolysis of p-nitrophenyl-β-D-glucopyranoside (pNPG) by BG into a yellow colored product, p-nitrophenol (pNP), that has a strong absorbance at 405 nm. […] The reaction was then terminated by adding 100 μL of 0.25 M sodium carbonate, and the amount of pNP produced was determined by measuring absorbance at 405 nm using a predetermined calibration curve. […]

The term Ki denotes a dissociation constant, usually derived from enzyme kinetics or from competition with a known ligand. Lower therefore signals a stronger hold on the target.

As to `OC[C@H]1OC(O)[C@H](O)[C@@H](O)[C@@H]1O` (some centres unmarked) [glucose], the affinity, expressed as Ki, was 2130 ± 180 µM. In addition, under “inhibitor influence, Km for pNPG / Ki for glucose, pH 5.0, 50° C.”, the Km/Ki is 0.30.
